Laboratory results reported in patent US6515015B1, “Antidiabetic agents based on aryl and heteroarylacetic acids” (Merck & Co. Inc., priority 1996, dated 2003).

Molecular target: T1, Human PPARγ2 (Homo sapiens, UniProt P37231)
T1 construct: The full length human cDNA for PPARγ2 and PPARδ were subcloned into the PGEX-2T and PGEX-KT; made in house; host or cells: E. coli (pGEX-2T vector)
T1 sequence (P37231 1-505): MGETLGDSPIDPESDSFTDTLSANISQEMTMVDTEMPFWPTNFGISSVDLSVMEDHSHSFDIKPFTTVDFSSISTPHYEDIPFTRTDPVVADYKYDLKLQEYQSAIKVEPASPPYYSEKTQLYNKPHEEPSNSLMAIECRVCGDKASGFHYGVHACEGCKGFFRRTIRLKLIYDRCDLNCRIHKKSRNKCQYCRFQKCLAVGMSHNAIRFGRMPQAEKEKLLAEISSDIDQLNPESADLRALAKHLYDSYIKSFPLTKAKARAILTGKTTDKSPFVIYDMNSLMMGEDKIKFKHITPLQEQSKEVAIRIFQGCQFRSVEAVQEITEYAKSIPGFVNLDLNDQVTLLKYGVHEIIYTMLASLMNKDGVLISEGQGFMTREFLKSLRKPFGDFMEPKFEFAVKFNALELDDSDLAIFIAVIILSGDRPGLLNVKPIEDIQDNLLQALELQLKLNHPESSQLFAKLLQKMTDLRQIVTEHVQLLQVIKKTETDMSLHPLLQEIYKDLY
Experiment: [3H]AD-5075 displacement assay for PPARγ2
Format: binding
Details: gst-fusion human PPARγ2, charcoal separation, ~16 h at 4° C.
Text: Compounds of the instant invention which are useful for the above discussed treatments can be identified and/or characterized by employing the PPAR δ, and γ binding assays. The assays are useful in predicting or quantitating in vivo effects having to do with the control or modulation of glucose, free fatty acid, triglyceride, insulin or cholesterol. To evaluate IC50 or EC50, values the compounds were titrated in the appropriate assay using different concentrations of the compound to be tested. To obtain the appropriate values (%Inhibition-IC50, or %Activation-EC50), the data resulting from the assays were then analyzed by determining the best fit of a 4 parameter function to the data using the Levenberg-Marquardt non-linear fitting algorithm in Kaleidagraph (Synergy Software, Reading, Pa.). The human nuclear receptor cDNA for PPARδ (hPPARδ) has been cloned from a human osteosarcoma cell cDNA library and is fully described in A. Schmidt et al., Molecular Endocrinology, 6:1634-1641 (1992), herein incorporated by reference in its entirety. See A. Elbrecht et al., Biochem. and Biophy. Res. Comm. 224:431-437 (1996) and T. Sher et al., Biochem. 32:5598-5604 (1993) for a description of the human nuclear receptor gene PPARγ and α.
Human PPARγ2 and PPARδ, independently, were prepared as gst-fusion proteins in E. coli. […]

Cc1oc(-c2ccccc2)nc1C(O)COc1ccc(CC2SC(=O)NC2=O)cc1 (stereo not shown) [AD-5075]
Kd: ~1 nM
